In one experiment the target is T1, CSF-1R kinase (Homo sapiens, UniProt P07333).
T1 construct: made in house; host or cells: T7 phage display or HEK-293 cells
Description: Competition binding assay, CSF-1R Kd. Here is the method: (§1) In certain embodiments, competition binding assays were performed as described in Fabian et al., Nature Biotechnology 2005, 23,329-336.
(§2) Competition binding assays used herein were developed, validated and performed as described in Fabian et al., Nature Biotechnology 2005, 23,329-336. Kinases were produced as fusions to T7 phage (See, Fabian et al. or WO04/015142) or alternatively, the kinases were expressed in HEK-293 cells and subsequently tagged with DNA for PCR detection (See, WO08/005,310). For the binding assays, streptavidin-coated magnetic beads were treated with biotinylated affinity ligands for 30 min at room temperature to generate affinity resins. The liganded beads were blocked with excess biotin and washed with blocking buffer (SeaBlock (Pierce), 1% BSA, 0.05% Tween 20, 1 mM DTT) to remove unbound ligand and to reduce non-specific binding. Binding reactions were assembled by combining kinase, liganded affinity beads, and test compounds in 1× binding buffer (20% SeaBlock, 0.17×PBS, 0.05% Tween 20, 6 mM DTT). Test compounds were prepared as 100× stocks in DMSO and diluted into the aqueous environment. Kds were determined using an eleven point threefold serial dilutions. DMSO or control compounds were was added to control assays lacking a test compound. Primary screen assays were performed in polypropylene 384-well plates in a final volume of 20-40 μL, while Kd determinations were performed in polystyrene 96-well plates in a final volume of 135 μL. The assay plates were incubated at room temperature with shaking for 1 hour to allow the binding reactions to reach equilibrium, and the affinity beads were washed extensively with wash buffer (1×PBS, 0.05% Tween 20) to remove unbound protein. The beads were then resuspended in elution buffer (1×PBS, 0.05% Tween 20, 0.5 μM non-biotinylated affinity ligand) and incubated at room temperature with shaking for 30 min. The kinase concentration in the eluates was measured by quantitative PCR.

Another experiment deals with T2, FLT3 kinase (Homo sapiens, UniProt P36888).
T2 construct: made in house; host or cells: T7 phage display or HEK-293 cells
T2 sequence (P36888 27-993): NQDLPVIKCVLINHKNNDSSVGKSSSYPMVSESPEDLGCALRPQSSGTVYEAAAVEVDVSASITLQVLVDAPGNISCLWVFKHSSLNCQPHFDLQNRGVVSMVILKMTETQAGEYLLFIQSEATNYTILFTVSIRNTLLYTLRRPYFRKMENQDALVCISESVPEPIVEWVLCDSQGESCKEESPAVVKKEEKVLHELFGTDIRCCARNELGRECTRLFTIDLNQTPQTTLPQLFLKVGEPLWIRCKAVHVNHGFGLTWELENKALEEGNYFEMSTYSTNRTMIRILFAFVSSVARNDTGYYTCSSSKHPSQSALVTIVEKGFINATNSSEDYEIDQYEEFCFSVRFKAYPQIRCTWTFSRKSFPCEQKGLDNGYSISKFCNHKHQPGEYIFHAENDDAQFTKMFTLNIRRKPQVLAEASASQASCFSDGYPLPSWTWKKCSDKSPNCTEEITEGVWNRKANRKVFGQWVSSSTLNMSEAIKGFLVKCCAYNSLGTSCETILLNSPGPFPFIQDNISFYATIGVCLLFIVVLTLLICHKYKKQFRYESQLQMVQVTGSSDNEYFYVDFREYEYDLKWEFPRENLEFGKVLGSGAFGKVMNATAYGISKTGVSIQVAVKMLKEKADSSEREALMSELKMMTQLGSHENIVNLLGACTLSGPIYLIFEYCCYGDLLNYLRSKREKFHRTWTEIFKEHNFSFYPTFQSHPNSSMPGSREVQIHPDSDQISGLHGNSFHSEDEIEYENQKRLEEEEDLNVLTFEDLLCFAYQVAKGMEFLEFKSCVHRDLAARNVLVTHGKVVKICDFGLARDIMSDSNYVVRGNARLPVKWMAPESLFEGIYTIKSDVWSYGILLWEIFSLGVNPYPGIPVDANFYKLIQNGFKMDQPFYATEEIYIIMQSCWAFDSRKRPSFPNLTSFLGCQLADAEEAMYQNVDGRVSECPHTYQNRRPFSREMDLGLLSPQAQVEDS
Description: Competition binding assay, FLT3 Kd. On the procedure: as §1, §2

Another experiment deals with MV4-11 cells. The experiment can be described thus: MV4-11 cell proliferation assay (Alamar Blue). It is filed as cell-based. Particulars: Homo sapiens, MV4-11, 72 h, 3 days incubation. On the procedure:
The compounds disclosed herein were tested in an MV4-11 cell proliferation assay to determine their cellular potency against Flt3. MV4-11 cells carry ITD mutation within juxtamembrane domain of Flt3 kinase which renders the kinase constitutively active. […] This assay measures the potency of compounds as Flt3 inhibitors by measuring the reduction of Alamar Blue reagent by viable cells.
MV4-11 cells were grown in an incubator at 37° C. under 5% CO2 in Iscove's media (Celgro) with 10% FBS. The cell density was kept between 1e5 and 8e5 cells/mL.
On day one of the experiment, cells were harvested and spun at 500 g for 5 min at 4° C., the supernatant aspirated and the cells resuspended in Iscove's media with 0.5% FBS. Cell density was maintained at 7.5e5 to achieve maximum viability of the cells. The resuspended cells were incubated at 37° C. in 5% CO2 overnight.
On day two of the experiment, cells were diluted to 6.4e5/mL with Iscove's media with 0.5% FBS. 100 μL of the cell suspension (64,000 cells) were aliquoted into each well of a 96-well TC-treated plate. Compounds were added at 9 different concentrations, with half-log intervals alongside a control reference compound serving as a positive control. Final DMSO concentration was kept at 0.5% and final volume at 200 μL. The cells were then incubated at 37° C. under 5% CO2 for 3 days.
On day five of the experiment, 40 μL of Alamar Blue reagent was added to each well and the mixture was allowed to incubate for 3 hours. Alamar Blue fluorescence was measured using SoftMax Pro software at 560 nm (excitation) and 590 nm (emission). IC50s were generated as an average of duplicates and represents the concentration of test compound that achieves 50% inhibition of cellular proliferation compared to negative control.
A general note: Resazurin is reduced to fluorescent resorufin, in cell work by metabolically active cells.

The target in the next experiment is T3, KIT kinase (Homo sapiens, UniProt P10721).
T3 construct: made in house; host or cells: T7 phage display or HEK-293 cells
Description: Competition binding assay, KIT Kd. Here is the method:
as §1, §2

Here are results for 16 compounds from patent US20130035326A1 (AMBIT BIOSCIENCES CORPORATION, priority 2009, published 2013).

T3 sequence (P10721 26-976): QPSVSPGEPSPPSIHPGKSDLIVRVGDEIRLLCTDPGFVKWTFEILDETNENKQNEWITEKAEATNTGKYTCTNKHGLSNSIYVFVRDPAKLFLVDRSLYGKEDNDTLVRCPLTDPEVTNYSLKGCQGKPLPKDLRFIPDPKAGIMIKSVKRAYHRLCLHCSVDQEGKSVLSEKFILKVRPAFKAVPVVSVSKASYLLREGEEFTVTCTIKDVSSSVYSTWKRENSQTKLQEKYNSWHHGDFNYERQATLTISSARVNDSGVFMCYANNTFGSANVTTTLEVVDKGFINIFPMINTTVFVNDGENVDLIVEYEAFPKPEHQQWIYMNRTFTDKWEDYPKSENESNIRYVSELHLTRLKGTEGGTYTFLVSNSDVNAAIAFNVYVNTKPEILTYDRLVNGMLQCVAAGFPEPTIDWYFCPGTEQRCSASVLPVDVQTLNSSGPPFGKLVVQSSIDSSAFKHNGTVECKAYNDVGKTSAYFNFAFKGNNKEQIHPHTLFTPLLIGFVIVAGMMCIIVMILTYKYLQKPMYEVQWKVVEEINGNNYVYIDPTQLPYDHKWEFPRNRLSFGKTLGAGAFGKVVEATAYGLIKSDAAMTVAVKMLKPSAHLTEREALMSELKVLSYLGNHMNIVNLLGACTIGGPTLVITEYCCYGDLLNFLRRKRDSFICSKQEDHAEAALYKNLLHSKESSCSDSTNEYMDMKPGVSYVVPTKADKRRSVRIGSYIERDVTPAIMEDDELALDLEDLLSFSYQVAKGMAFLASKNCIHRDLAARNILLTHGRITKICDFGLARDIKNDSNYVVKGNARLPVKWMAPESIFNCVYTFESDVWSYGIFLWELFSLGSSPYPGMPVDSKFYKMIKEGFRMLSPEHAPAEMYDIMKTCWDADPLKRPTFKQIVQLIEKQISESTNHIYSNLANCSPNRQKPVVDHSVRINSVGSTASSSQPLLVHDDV
T1 sequence (P07333 20-972): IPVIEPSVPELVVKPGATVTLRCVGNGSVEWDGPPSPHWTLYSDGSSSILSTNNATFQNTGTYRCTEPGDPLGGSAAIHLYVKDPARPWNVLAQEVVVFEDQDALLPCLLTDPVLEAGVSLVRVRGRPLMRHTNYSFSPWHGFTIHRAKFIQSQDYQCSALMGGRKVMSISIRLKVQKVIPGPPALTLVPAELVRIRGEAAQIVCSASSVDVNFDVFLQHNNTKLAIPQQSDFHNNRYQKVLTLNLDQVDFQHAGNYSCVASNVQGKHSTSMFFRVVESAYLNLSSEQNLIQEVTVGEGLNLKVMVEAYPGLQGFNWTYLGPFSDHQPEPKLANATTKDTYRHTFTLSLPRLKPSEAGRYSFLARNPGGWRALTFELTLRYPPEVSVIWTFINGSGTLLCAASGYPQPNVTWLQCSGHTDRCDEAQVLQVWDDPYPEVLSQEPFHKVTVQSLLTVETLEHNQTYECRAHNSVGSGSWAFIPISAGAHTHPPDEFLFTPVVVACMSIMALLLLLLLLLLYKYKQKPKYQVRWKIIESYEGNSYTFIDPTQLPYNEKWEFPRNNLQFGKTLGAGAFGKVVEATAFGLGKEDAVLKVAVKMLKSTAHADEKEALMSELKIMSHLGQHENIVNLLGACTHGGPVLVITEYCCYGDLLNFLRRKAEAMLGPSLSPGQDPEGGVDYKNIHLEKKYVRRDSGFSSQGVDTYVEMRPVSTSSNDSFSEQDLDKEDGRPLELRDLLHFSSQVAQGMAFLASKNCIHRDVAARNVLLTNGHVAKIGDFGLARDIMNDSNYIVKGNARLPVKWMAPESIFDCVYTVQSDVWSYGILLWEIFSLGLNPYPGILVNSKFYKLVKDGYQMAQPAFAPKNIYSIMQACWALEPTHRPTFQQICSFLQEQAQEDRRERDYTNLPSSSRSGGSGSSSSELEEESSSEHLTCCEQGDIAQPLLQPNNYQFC

For `CC(C)(C)c1cc(NC(=O)Nc2ccc(-c3ccc(NCCN4CCCCC4)nc3)cc2F)no1` [Example 27, 1-(5-tert-butylisoxazol-3-yl)-3-(2-fluoro-4-(6-(2-(piperidin-1-yl)ethylamino)pyridin-3-yl)phenyl)urea], the Kd (in general, the equilibrium constant for the complex coming apart) on CSF-1R kinase was at most 10 nM; on FLT3 kinase, at most 1 nM; at KIT kinase, at most 1 nM. Moreover, the IC50 (as a rule, the midpoint of a concentration-inhibition curve) with MV4-11 cells was 10 to 100 nM.
Turning to `CC(C)(C)c1cc(NC(=O)Nc2ccc(-c3ccc(NCCCN4CCOCC4)nc3)cc2)no1` [Example 28, 1-(5-tert-butylisoxazol-3-yl)-3-(4-(6-(3-morpholinopropylamino)pyridin-3-yl)phenyl)urea], the Kd at CSF-1R kinase was at most 10 nM; at FLT3 kinase, at most 1 nM; at KIT kinase, at most 1 nM. This compound also yielded an IC50 in the experiment on MV4-11 cells of at most 1 nM.
On to `CC(C)(C)c1cc(NC(=O)Cc2ccc(-c3ccc(N)nc3C(F)(F)F)cc2)no1.CS(=O)(=O)O` [Example 129, 5-(4-(2-(5-tert-butylisoxazol-3-ylamino)-2-oxoethyl)phenyl)-6-(trifluoromethybpyridin-2-aminium methanesulfonate], for which the results for the Kd on CSF-1R kinase, at FLT3 kinase and on KIT kinase were above 500 nM, 10 to 100 nM and 10 to 100 nM, respectively. Besides, the IC50 in the experiment with MV4-11 cells was 100 to 500 nM.
Regarding `CC(C)(C)c1cc(NC(=O)Cc2ccc(-c3cnc4c(c3)CCCN4)cc2)no1` [Example 120, 6-(4-(2-((5-(tert-butyl)isoxazol-3-yl)amino)-2-oxoethyl)phenyl)-1,2,3,4-tetrahydro-1,8-naphthyridin-1-ium methanesulfonate], the equilibrium dissociation constant (Kd) is at most 10 nM on CSF-1R kinase, at most 1 nM at FLT3 kinase and 1 to 10 nM on KIT kinase. In addition, the IC50 in the experiment with MV4-11 cells was 1 to 10 nM.
For `CC(C)(CO)c1cc(NC(=O)Nc2ccc(-c3ccc(N)nc3)cc2)on1` [Example 81, 5-(4-(3-(3-(1-hydroxy-2-methylpropan-2-yl)isoxazol-5-yl)ureido)phenyl)pyridin-2-aminium methanesulfonate], the figures for the Kd at CSF-1R kinase, on FLT3 kinase and at KIT kinase were at most 10 nM, 1 to 10 nM and 1 to 10 nM, respectively. The compound further yielded an IC50 in the experiment with MV4-11 cells of 10 to 100 nM.
Consider `CC(C(=O)Nc1cc(C(C)(C)C)on1)c1ccc(-c2ccc(N)nc2)cc1` (racemic) [Example 71, 2-(4-(6-aminopyridin-3-yl)phenyl)-N-(5-tert-butylisoxazol-3-yl) propanamide], for which the dissociation constant (Kd) was in the range of 10 to 100 nM at CSF-1R kinase, 1 to 10 nM on FLT3 kinase and 10 to 100 nM on KIT kinase. This compound showed an IC50 with MV4-11 cells of 10 to 100 nM.
Consider `CC(C)(F)c1cc(NC(=O)Nc2ccc(-c3ccc(NCCN4CCOCC4)nc3)cc2)on1` [Example 38, 4,4-(2-(5-(4-(3-(3-(2-fluoropropan-2-yl)isoxazol-5-yl)ureido)phenyl)pyridin-2-ylamino)ethyl)morpholin-4-ium methanesulfonate], for which the Kd at CSF-1R kinase is at most 10 nM; at FLT3 kinase, 1 to 10 nM; at KIT kinase it was at most 1 nM. Besides, in the experiment on MV4-11 cells, the IC50 fell in the range of 10 to 100 nM.
Consider `Cc1nc(N)ccc1-c1ccc(CC(=O)Nc2cc(C(C)(C)C)on2)cc1` [Example 87, 5-(4-(2-(5-tert-butylisoxazol-3-ylamino)-2-oxoethyl)phenyl)-6-methylpyridin-2-aminium methanesulfonate], for which the Kd at CSF-1R kinase is 10 to 100 nM; on FLT3 kinase, at most 1 nM; on KIT kinase it was 1 to 10 nM. In the experiment with MV4-11 cells, this compound yielded an IC50 of 10 to 100 nM.
Consider `CCC1(c2cc(NC(=O)Cc3ccc(-c4ccc(N)nc4)cc3)no2)CC1` [Example 171], for which the Kd was at most 10 nM at CSF-1R kinase, at most 1 nM on FLT3 kinase and 1 to 10 nM at KIT kinase. Moreover, in the experiment on MV4-11 cells, the IC50 was at most 1 nM.
As for `CC(C)(C)c1cc(NC(=O)Cc2ccc(-c3cnc(N)nc3)cc2F)no1` [Example 79, 2-(4-(2-aminopyrimidin-5-yl)-2-fluorophenyl)-N-(5-tert-butylisoxazol-3-yl)acetamide], the values for the Kd at CSF-1R kinase, on FLT3 kinase and on KIT kinase were at most 10 nM, at most 1 nM and 1 to 10 nM, respectively. The compound also registered an IC50 in the experiment with MV4-11 cells of at most 1 nM.
In the case of `Nc1ccc(-c2ccc(NC(=O)Nc3cc(C4(C(F)(F)F)CC4)on3)cc2)cn1` [Example 33, 5-(4-(3-(5-(1-(trifluoromethyl)cyclopropyl)isoxazol-3-yl)ureido)phenyl)pyridin-2-aminium methanesulfonate], the Kd on CSF-1R kinase was at most 10 nM; on FLT3 kinase it was at most 1 nM; at KIT kinase, at most 1 nM. The compound also returned an IC50 in the experiment with MV4-11 cells of at most 1 nM.
Consider `CC(C)(CO)c1cc(NC(=O)Cc2ccc(-c3ccc(N)nc3)cc2)no1` [Example 88, 5-(4-(2-(5-(1-hydroxy-2-methylpropan-2-yl)isoxazol-3-ylamino)-2-oxoethyl)phenyl)pyridin-2-aminium methanesulfonate], for which the values for the Kd at CSF-1R kinase, on FLT3 kinase and at KIT kinase were 10 to 100 nM, at most 1 nM and 1 to 10 nM, respectively. The IC50 in the experiment on MV4-11 cells lay in the range of 1 to 10 nM.
For `Cc1nc(-c2ccc(CC(=O)Nc3cc(C(C)(C)C)on3)cc2)c(C)nc1N` [Example 174], the Kd at CSF-1R kinase was 100 to 500 nM; at FLT3 kinase, at most 1 nM; at KIT kinase, 1 to 10 nM. This compound showed a half-maximal inhibitory concentration (IC50) with MV4-11 cells of 10 to 100 nM.
Take `CC(C)(CO)c1cc(NC(=O)Cc2ccc(-c3ccc(N)nc3)cc2)on1` [Example 83, 5-(4-(2-((3-(1-hydroxy-2-methylpropan-2-yl)isoxazol-5-yl)amino)-2-oxoethyl)phenyl)pyridin-2-aminium methanesulfonate]: the Kd on CSF-1R kinase is at most 10 nM; at FLT3 kinase, at most 1 nM; on KIT kinase, 1 to 10 nM. In the experiment on MV4-11 cells, the 50% inhibitory concentration (IC50) lay in the range of 10 to 100 nM.
`CC(C)(C)c1cc(NC(=O)Cc2ccc(-c3cnc(N)nc3)cn2)no1` [Example 77, 2-(5-(2-aminopyrimidin-5-yl)pyridin-2-yl)-N-(5-tert-butylisoxazol-3-yl)acetamide]: the Kd at CSF-1R kinase is at most 10 nM; at FLT3 kinase, at most 1 nM; at KIT kinase, 1 to 10 nM. Also, in the experiment with MV4-11 cells, the IC50 lay within 1 to 10 nM.
`Cn1cc(-c2cc(-c3ccc(CC(=O)Nc4cc(C(C)(C)C)on4)cc3)cnc2N)cn1` [Example 154]: the values for the Kd on CSF-1R kinase, on FLT3 kinase and at KIT kinase were 10 to 100 nM, at most 1 nM and 1 to 10 nM, respectively. In addition, in the experiment with MV4-11 cells, the IC50 lay in the range of 1 to 10 nM.
